Laboratory results: patent US20110105474A1, “HETEROCYCLIC DERIVATIVES AS HDAC INHIBITORS” (DAC S.r.l., priority 2008, published 2011)
pIC50: −log10 of the molar value. Counter-ions that a name gives are not always drawn.

Legend:
Assay type in all cases: cell-based
K562 cells = test: Cell growth, CellTiter-Glo Luminescent Cell Viability Assay, K562; settings: Homo sapiens, 72 h incubation
Description: (§1) CellTiter-Glo® Luminescent Cell Viability Assay (Promega) is a homogeneous method of determining the number of viable cells in culture based on quantitation of the present ATP, which indicates the presence of metabolically active cells. The homogeneous assay procedure involves addition of a single reagent (CellTiter-Glo®Reagent) directly to the cells, which leads to cell lysis and generation of a luminescent signal proportional to the amount of the ATP and the number of cells present in culture. The assay relies on the properties of a proprietary thermostable luciferase (Ultra-Glo® recombinant luciferase), which generates a luminescent signal.
(§2) K562, A549 and HCT-116 cells, in exponential growth, were incubated for 72 h with different concentrations of the inhibitors. After 72 h, a volume of CellTiter-Glo® Reagent equal to the volume of cell culture medium was added. The content was mixed for 2 min to induce cell lysis. The luminescence was recorded after further 10 min at RT in order to obtain a stabilized luminescent signal.
(§3) The IC50 was calculated using GraphPad Software.
(§4) IC50 results were allocated to one of 3 ranges as follows: Range A: IC50≦1.0 μM; Range B: from 1.0 to 3.0 μM; Range C: IC50≧3.0 μM.

A549 cells = test: Cell growth, CellTiter-Glo Luminescent Cell Viability Assay, A549; settings: Homo sapiens, 72 h incubation
Description: as §1, §2, §3, §4

HCT-116 cells = test: Cell growth, CellTiter-Glo Luminescent Cell Viability Assay, HCT-116; settings: Homo sapiens, 72 h incubation, read-out: IC50 HCT116
Description: as §1, §2, §3, §4

| SMILES | pIC50 (K562 cells) | pIC50 (A549 cells) | pIC50 (HCT-116 cells) |
| --- | --- | --- | --- |
| O=C(/C=C/c1cccc(/C=C/C(=O)N2CCCC(c3ccc(F)cc3)C2)c1)NO (racemic) [Example 84, (±)-(E)-3-(3-{(E)-3-[3-(4-Fluoro-phenyl)-piperidin-1-yl]-3-oxo-propenyl}-phenyl)-N-hydroxy-acrylamide] | ≤ 5.52 | ≤ 5.52 | ≤ 5.52 |
| O=C(/C=C/c1cccc(/C=C/C(=O)N2CCN(c3ccccc3)CC2)c1)NO [Example 3, (E)-N-Hydroxy-3-{3-[(E)-3-oxo-3-(4-phenyl-piperazin-1-yl)-propenyl]-phenyl}-acrylamide] | ≥ 6.00 | 5.52 to 6.00 | ≥ 6.00 |
| O=C(/C=C/c1ccc(/C=C/C(=O)N2CCN(c3ccccc3)CC2)cc1)NO [Example 7, (E)-N-Hydroxy-3-{4-[(E)-3-oxo-3-(4-phenyl-piperazin-1-yl)-propenyl]-phenyl}-acrylamide] | ≤ 5.52 | ≤ 5.52 | ≤ 5.52 |
| O=C(/C=C/c1ccc(/C=C/C(=O)N2CCN(c3ccccc3)CC2)cn1)NO [Example 11, (E)-N-Hydroxy-3-{5-[(E)-3-oxo-3-(4-phenyl-piperazin-1-yl)-propenyl]-pyridin-2-yl}-acrylamide] | 5.52 to 6.00 | ≤ 5.52 | 5.52 to 6.00 |
| O=C(/C=C/c1cccc(/C=C/C(=O)N2CCN(c3ccccc3)CC2)n1)NO [Example 13, (E)-N-Hydroxy-3-{6-[(E)-3-oxo-3-(4-phenyl-piperazin-1-yl)-propenyl]-pyridin-2-yl}-acrylamide] | 5.52 to 6.00 | 5.52 to 6.00 | 5.52 to 6.00 |
| O=C(/C=C/c1cccc(/C=C/C(=O)N2CCN(c3cccc(Cl)c3)CC2)n1)NO [Example 15, (E)-3-(6-{(E)-3-[4-(3-Chloro-phenyl)-piperazin-1-yl]-3-oxo-propenyl}-pyridin-2-yl)-N-hydroxy-acrylamide] | 5.52 to 6.00 | ≤ 5.52 | 5.52 to 6.00 |
| O=C(/C=C/c1cccc(/C=C/C(=O)N2CCN(C(=O)c3ccccc3)CC2)n1)NO [Example 16, (E)-3-{6-[(E)-3-(4-Benzoyl-piperazin-1-yl)-3-oxo-propenyl]-pyridin-2-yl}-N-hydroxy-acrylamide hydrochloride] | ≤ 5.52 | ≤ 5.52 | ≤ 5.52 |
| O=C(/C=C/c1cccc(/C=C/C(=O)N2CCC(Cc3ccccc3)CC2)n1)NO [Example 17, (E)-3-{6-[(E)-3-(4-Benzyl-piperidin-1-yl)-3-oxo-propenyl]-pyridin-2-yl}-N-hydroxy-acrylamide hydrochloride] | 5.52 to 6.00 | 5.52 to 6.00 | 5.52 to 6.00 |
| O=C(/C=C/c1cccc(/C=C/C(=O)N2CCN(c3ccccc3Cl)CC2)n1)NO [Example 18, (E)-3-(6-{(E)-3-[4-(2-Chloro-phenyl)-piperazin-1-yl]-3-oxo-propenyl}-pyridin-2-yl)-N-hydroxy-acrylamide hydrochloride] | 5.52 to 6.00 | 5.52 to 6.00 | ≥ 6.00 |
| O=C(/C=C/c1cccc(/C=C/C(=O)N2CCC(c3ccccc3)CC2)n1)NO [Example 19, (E)-N-Hydroxy-3-{6-[(E)-3-oxo-3-(4-phenyl-piperidin-1-yl)-propenyl]-pyridin-2-yl}-acrylamide hydrochloride] | 5.52 to 6.00 | 5.52 to 6.00 | 5.52 to 6.00 |
| O=C(/C=C/c1cccc(/C=C/C(=O)N2CCN(c3ncccn3)CC2)n1)NO [Example 20, (E)-N-Hydroxy-3{-6-[(E)-3-oxo-3-(4-pyrimidin-2-yl-piperazin-1-yl)-propenyl]-pyridin-2-yl}-acrylamide hydrochloride] | ≤ 5.52 | ≤ 5.52 | ≤ 5.52 |
| O=C(/C=C/c1cccc(/C=C/C(=O)N2CCN(c3ccc(Cl)cc3)CC2)n1)NO [Example 21, (E)-3-(6-{(E)-3-[4-(4-Chloro-phenyl)-piperazin-1-yl]-3-oxo-propenyl}-pyridin-2-yl)-N-hydroxy-acrylamide hydrochloride] | ≥ 6.00 | ≥ 6.00 | ≥ 6.00 |
| O=C(/C=C/c1cccc(/C=C/C(=O)N2CCN(Cc3ccccc3)CC2)n1)NO [Example 22, (E)-3-{6-[(E)-3-(4-Benzyl-piperazin-1-yl)-3-oxo-propenyl]-pyridin-2-yl}-N-hydroxy-acrylamide hydrochloride] | 5.52 to 6.00 | ≤ 5.52 | 5.52 to 6.00 |
| O=C(/C=C/c1cccc(/C=C/C(=O)N2CCN(CCc3ccccc3)CC2)n1)NO [Example 23, (E)-N-Hydroxy-3-{6-[(E)-3-oxo-3-(4-phenethyl-piperazin-1-yl)-propenyl]-pyridin-2-yl}-acrylamide hydrochloride] | 5.52 to 6.00 | ≤ 5.52 | 5.52 to 6.00 |
| O=C(/C=C/c1cccc(/C=C/C(=O)N2CCC(C(=O)c3ccccc3)CC2)n1)NO [Example 24, (E)-3-{6-[(E)-3-(4-Benzoyl-piperidin-1-yl)-3-oxo-propenyl]-pyridin-2-yl}-N-hydroxy-acrylamide hydrochloride] | 5.52 to 6.00 | ≤ 5.52 | 5.52 to 6.00 |
| O=C(/C=C/c1cccc(/C=C/C(=O)N2CC=C(c3ccccc3)CC2)n1)NO [Example 26, (E)-N-Hydroxy-3-{6-[(E)-3-oxo-3-(4-phenyl-3,6-dihydro-2H-pyridin-1-yl)-propenyl]-pyridin-2-yl}-acrylamide hydrochloride] | 5.52 to 6.00 | 5.52 to 6.00 | ≥ 6.00 |
| Cc1cccc(C)c1C1CCN(C(=O)/C=C/c2cccc(/C=C/C(=O)NO)n2)CC1 [Example 27, (E)-3-(6-{(E)-3-[4-(2,6-Dimethyl-phenyl)-piperidin-1-yl]-3-oxo-propenyl}-pyridin-2-yl)-N-hydroxy-acrylamide hydrochloride] | 5.52 to 6.00 | 5.52 to 6.00 | 5.52 to 6.00 |
| N#CC1(c2ccccc2)CCN(C(=O)/C=C/c2cccc(/C=C/C(=O)NO)n2)CC1 [Example 28, (E)-3-{6-[(E)-3-(4-Cyano-4-phenyl-piperidin-1-yl)-3-oxo-propenyl]-pyridin-2-yl}-N-hydroxy-acrylamide hydrochloride] | 5.52 to 6.00 | ≤ 5.52 | 5.52 to 6.00 |
| O=C(/C=C/c1cccc(/C=C/C(=O)N2CCN(c3ccccn3)CC2)n1)NO [Example 29, (E)-N-Hydroxy-3-{6-[(E)-3-oxo-3-(4-pyridin-2-yl-piperazin-1-yl)-propenyl]-pyridin-2-yl}-acrylamide hydrochloride] | ≤ 5.52 | ≤ 5.52 | ≤ 5.52 |
| Cc1cccc(C)c1N1CCN(C(=O)/C=C/c2cccc(/C=C/C(=O)NO)n2)CC1 [Example 31, (E)-3-(6-{(E)-3-[4-(2,6-Dimethyl-phenyl)-piperazin-1-yl]-3-oxo-propenyl}-pyridin-2-yl)-N-hydroxy-acrylamide hydrochloride] | 5.52 to 6.00 | ≤ 5.52 | 5.52 to 6.00 |
| O=C(/C=C/c1cccc(/C=C/C(=O)N2CCC3(CC2)C(=O)NCN3c2ccccc2)n1)NO [Example 32, (E)-N-Hydroxy-3-{6-[(E)-3-oxo-3-(4-oxo-1-phenyl-1,3,8-triaza-spiro[4.5]dec-8-yl)-propenyl]-pyridin-2-yl}-acrylamide hydrochloride] | ≤ 5.52 | ≤ 5.52 | ≤ 5.52 |
